In patent US11083725B2 (priority 2014, dated 2021):

Tested on: NHBE cells
Assay: Biolog metabolic array: substrate use by NHBE cells with or without CA09 infection
Assay type: cell-based, human
Conditions: for Substrate use, 590 nm absorbance normalized to zero hour, 0 hr: Biolog PMM2, 0 hr; for Substrate use, 590 nm absorbance normalized to zero hour, 1 hr: Biolog PMM2, 1 hr; for Substrate use, 590 nm absorbance normalized to zero hour, 5 hr: Biolog PMM2, 5 hr; for Substrate use, 590 nm absorbance normalized to zero hour, 7 hr: Biolog PMM2, 7 hr
[1] = Control (uninfected) NHBE cells
[2] = Virus (CA09-infected NHBE cells, MOI 1)
[3] = Virus: CA09-infected NHBE cells, MOI 1, Biolog PMM2
[4] = Virus (CA09-infected, MOI 1) NHBE cells

Structure (SMILES) | 590 nm absorbance normalized to zero hour (substrate use), 0 hr [1] | 590 nm absorbance normalized to zero hour (substrate use), 1 hr [1] | 590 nm absorbance normalized to zero hour (substrate use), 2 hr [1] | 590 nm absorbance normalized to zero hour (substrate use), 3 hr [1] | 590 nm absorbance normalized to zero hour (substrate use), 4 hr [1] | 590 nm absorbance normalized to zero hour (substrate use), 6 hr [1] | 590 nm absorbance normalized to zero hour (substrate use), 8 hr [1] | 590 nm absorbance normalized to zero hour (substrate use), 9 hr [1] | 590 nm absorbance normalized to zero hour (substrate use), 10 hr [1] | 590 nm absorbance normalized to zero hour (substrate use), 11 hr [1] | Substrate use, 590 nm absorbance normalized to zero hour, 0 hr [1] | Substrate use, 590 nm absorbance normalized to zero hour, 1 hr [1] | Substrate use, 590 nm absorbance normalized to zero hour, 5 hr [1] | Substrate use, 590 nm absorbance normalized to zero hour, 7 hr [1] | 590 nm absorbance normalized to zero hour (substrate use), 0 hr [3] | 590 nm absorbance normalized to zero hour (substrate use), 1 hr [3] | 590 nm absorbance normalized to zero hour (substrate use), 2 hr [3] | 590 nm absorbance normalized to zero hour (substrate use), 3 hr [3] | 590 nm absorbance normalized to zero hour (substrate use), 4 hr [3] | 590 nm absorbance normalized to zero hour (substrate use), 5 hr [3] | further results
C[C@@H]1OC(O)[C@@H](O)[C@H](O)[C@@H]1O (stereo partly drawn) [L-Fucose] | 1.00 | 0.10 | 0.20 | 0.18 | 0.18 | 0.26 | 0.27 | 0.26 | 0.24 | 0.26 | 1.00 | 0.10 | 0.22 | 0.25 | 1.00 | 0.21 | 0.28 | 0.33 | 0.35 | 0.42 | 590 nm absorbance normalized to zero hour (substrate use), 0 hr [2]: 1.00; 590 nm absorbance normalized to zero hour (substrate use), 1 hr [2]: 0.21; 590 nm absorbance normalized to zero hour (substrate use), 2 hr [2]: 0.28; 590 nm absorbance normalized to zero hour (substrate use), 3 hr [2]: 0.33; 590 nm absorbance normalized to zero hour (substrate use), 4 hr [2]: 0.35; 590 nm absorbance normalized to zero hour (substrate use), 5 hr [2]: 0.42; 590 nm absorbance normalized to zero hour (substrate use), 6 hr [2]: 0.45; 590 nm absorbance normalized to zero hour (substrate use), 7 hr [2]: 0.47; 590 nm absorbance normalized to zero hour (substrate use), 8 hr [2]: 0.50; 590 nm absorbance normalized to zero hour (substrate use), 9 hr [2]: 0.54; 590 nm absorbance normalized to zero hour (substrate use), 10 hr [2]: 0.57; 590 nm absorbance normalized to zero hour (substrate use), 11 hr [2]: 0.61; 590 nm absorbance normalized to zero hour (substrate use), 6 hr [3]: 0.45; 590 nm absorbance normalized to zero hour (substrate use), 7 hr [3]: 0.47; 590 nm absorbance normalized to zero hour (substrate use), 8 hr [3]: 0.50; 590 nm absorbance normalized to zero hour (substrate use), 9 hr [3]: 0.54; 590 nm absorbance normalized to zero hour (substrate use), 10 hr [3]: 0.57; 590 nm absorbance normalized to zero hour (substrate use), 11 hr [3]: 0.61
OC[C@@H]1OC(O)[C@@H](O)[C@H](O)[C@H]1O (stereo partly drawn) [L-Glucose] | 1.00 | 1.65 | 2.20 | 2.64 | 2.83 | 3.82 | 3.55 | 3.76 | 3.89 | 4.25 | 1.00 | 1.65 | 3.52 | 3.51 | 1.00 | 0.29 | 0.39 | 0.45 | 0.49 | 0.57 | 590 nm absorbance normalized to zero hour (substrate use), 0 hr [2]: 1.00; 590 nm absorbance normalized to zero hour (substrate use), 1 hr [2]: 0.29; 590 nm absorbance normalized to zero hour (substrate use), 2 hr [2]: 0.39; 590 nm absorbance normalized to zero hour (substrate use), 3 hr [2]: 0.45; 590 nm absorbance normalized to zero hour (substrate use), 4 hr [2]: 0.49; 590 nm absorbance normalized to zero hour (substrate use), 5 hr [2]: 0.57; 590 nm absorbance normalized to zero hour (substrate use), 6 hr [2]: 0.61; 590 nm absorbance normalized to zero hour (substrate use), 7 hr [2]: 0.64; 590 nm absorbance normalized to zero hour (substrate use), 8 hr [2]: 0.68; 590 nm absorbance normalized to zero hour (substrate use), 9 hr [2]: 0.76; 590 nm absorbance normalized to zero hour (substrate use), 10 hr [2]: 0.76; 590 nm absorbance normalized to zero hour (substrate use), 11 hr [2]: 0.86; 590 nm absorbance normalized to zero hour (substrate use), 6 hr [3]: 0.61; 590 nm absorbance normalized to zero hour (substrate use), 7 hr [3]: 0.64; 590 nm absorbance normalized to zero hour (substrate use), 8 hr [3]: 0.68; 590 nm absorbance normalized to zero hour (substrate use), 9 hr [3]: 0.76; 590 nm absorbance normalized to zero hour (substrate use), 10 hr [3]: 0.76; 590 nm absorbance normalized to zero hour (substrate use), 11 hr [3]: 0.86
CC(O)C(=O)O [L-Lactic Acid (DL)] | 1.00 | 1.56 | 2.01 | 2.57 | 2.66 | 1.75 | 3.21 | 3.56 | 3.63 | 4.70 | 1.00 | 1.56 | 3.09 | 2.97 | 1.00 | 1.33 | 1.66 | 2.04 | 2.11 | 2.48 | 590 nm absorbance normalized to zero hour (substrate use), 0 hr [4]: 1.00; 590 nm absorbance normalized to zero hour (substrate use), 1 hr [4]: 1.33; 590 nm absorbance normalized to zero hour (substrate use), 2 hr [4]: 1.66; 590 nm absorbance normalized to zero hour (substrate use), 3 hr [4]: 2.04; 590 nm absorbance normalized to zero hour (substrate use), 4 hr [4]: 2.11; 590 nm absorbance normalized to zero hour (substrate use), 5 hr [4]: 2.48; 590 nm absorbance normalized to zero hour (substrate use), 6 hr [4]: 2.68; 590 nm absorbance normalized to zero hour (substrate use), 7 hr [4]: 2.86; 590 nm absorbance normalized to zero hour (substrate use), 8 hr [4]: 3.04; 590 nm absorbance normalized to zero hour (substrate use), 9 hr [4]: 3.36; 590 nm absorbance normalized to zero hour (substrate use), 10 hr [4]: 3.49; 590 nm absorbance normalized to zero hour (substrate use), 11 hr [4]: 3.91; 590 nm absorbance normalized to zero hour (substrate use), 6 hr [3]: 2.68; 590 nm absorbance normalized to zero hour (substrate use), 7 hr [3]: 2.86; 590 nm absorbance normalized to zero hour (substrate use), 8 hr [3]: 3.04; 590 nm absorbance normalized to zero hour (substrate use), 9 hr [3]: 3.36; 590 nm absorbance normalized to zero hour (substrate use), 10 hr [3]: 3.49; 590 nm absorbance normalized to zero hour (substrate use), 11 hr [3]: 3.91
